# Test results published in patent publication US4579822A (priority 1983, dated 1986).
# Where two headings read alike, the source gives them in different places.
# T1: DHAK (II) (Schizosaccharomyces pombe, UniProt O74215)
# T1 construct: DHAK (I) and DHAK (II) obtained from Schizosaccharomyces pombe IFO 0354; made in house; host or cells: Schizosaccharomyces pombe IFO 0354 (natural producer, not recombinant); cell extract, DEAE-Sepharose fraction at 0.16 M KCl, then Blue-Sepharose
# T1 sequence (O74215 1-591): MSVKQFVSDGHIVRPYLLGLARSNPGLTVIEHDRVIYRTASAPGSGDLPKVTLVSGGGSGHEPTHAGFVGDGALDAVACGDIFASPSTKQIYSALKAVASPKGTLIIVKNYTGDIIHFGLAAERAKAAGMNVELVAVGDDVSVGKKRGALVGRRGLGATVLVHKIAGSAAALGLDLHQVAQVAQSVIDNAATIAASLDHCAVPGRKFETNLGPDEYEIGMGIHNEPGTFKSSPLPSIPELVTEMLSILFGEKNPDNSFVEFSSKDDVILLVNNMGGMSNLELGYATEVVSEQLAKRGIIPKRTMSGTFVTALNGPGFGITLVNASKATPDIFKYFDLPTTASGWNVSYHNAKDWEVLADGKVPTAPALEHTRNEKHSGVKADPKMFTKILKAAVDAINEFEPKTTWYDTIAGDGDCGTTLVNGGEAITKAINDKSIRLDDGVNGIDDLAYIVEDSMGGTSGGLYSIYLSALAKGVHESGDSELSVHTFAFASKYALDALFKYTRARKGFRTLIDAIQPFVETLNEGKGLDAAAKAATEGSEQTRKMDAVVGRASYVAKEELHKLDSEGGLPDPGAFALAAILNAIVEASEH
# T2: DHAK (I) (Schizosaccharomyces pombe, UniProt O13902)
# T2 construct: DHAK (I) and DHAK (II) obtained from Schizosaccharomyces pombe IFO 0354; made in house; host or cells: Schizosaccharomyces pombe IFO 0354 (natural producer, not recombinant); cell extract, DEAE-Sepharose fraction at 0.12 M KCl, then Blue-Sepharose
# T2 sequence (O13902 1-580): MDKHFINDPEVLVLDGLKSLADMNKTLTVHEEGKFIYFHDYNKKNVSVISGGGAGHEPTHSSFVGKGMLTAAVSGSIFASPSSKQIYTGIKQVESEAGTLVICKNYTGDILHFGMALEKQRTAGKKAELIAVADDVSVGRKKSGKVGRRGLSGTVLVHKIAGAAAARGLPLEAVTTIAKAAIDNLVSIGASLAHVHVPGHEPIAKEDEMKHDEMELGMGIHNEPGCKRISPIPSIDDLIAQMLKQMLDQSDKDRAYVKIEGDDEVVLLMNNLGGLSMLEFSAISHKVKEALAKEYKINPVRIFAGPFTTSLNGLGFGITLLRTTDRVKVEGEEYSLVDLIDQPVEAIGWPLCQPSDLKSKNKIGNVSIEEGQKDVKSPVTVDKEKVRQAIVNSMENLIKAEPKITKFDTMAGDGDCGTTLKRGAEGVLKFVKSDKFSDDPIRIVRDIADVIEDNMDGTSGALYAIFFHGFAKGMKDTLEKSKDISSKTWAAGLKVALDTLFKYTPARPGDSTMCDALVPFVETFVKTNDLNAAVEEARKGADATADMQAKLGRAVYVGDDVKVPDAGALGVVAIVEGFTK
# Experiments:
# DHAK (II) [1] = biological target: T1, DHAK (II); experiment: Specificity of DHAK (II) for divalent metal cations; type: biochemical, Schizosaccharomyces pombe IFO 0354; details: for Relative activity DHAK (II) (metal cation): each divalent metal cation 4 mM, MgSO4 = 100%
# Procedure: (§1) The reaction is started by adding enzyme solution, and the decrease of the absorbance at 340 nm is measured spectrophotometrically at 25° C. In the blank assay, DHA is excluded from the reaction mixture. One unit of the enzyme activity is defined as the amount of enzyme which catalyzes the formation of 1 μmol NAD^+ in one minute under the above conditions. The above reaction is represented by the following equations: [drawing 3]
# (§2) Each divalent metal cation (4 mM) was added to the reaction mixture and the activity of the enzyme was measured.
# DHAK (I) [2] = biological target: T2, DHAK (I); experiment: Specificity of DHAK (I) for divalent metal cations; type: biochemical, Schizosaccharomyces pombe IFO 0354; details: for Relative activity DHAK (I) (metal cation): each divalent metal cation 4 mM, MgSO4 = 100%
# Procedure: as §1, §2
# DHAK (I) [3] = biological target: T2, DHAK (I); experiment: Substrate specificity of DHAK (I); type: biochemical, Schizosaccharomyces pombe IFO 0354
# Procedure: (§3) The reaction mixture for measuring the substrate specificity of DHAK consists of 1.0 ml of 0.1M triethanolamine-HCl buffer (pH 7.5), 2.5 mM ATP, 4 mM MgSO4, 0.2 mM NADH, 1.3 mM phosphoenolpyruvate, 6 units of pyruvate kinase, 6 units of lactate dehydrogenase (Boehringer Mannheim GmbH), 0.01 ml of enzyme solution and each substrate (1.0 mM) as shown in Table 1. The reaction is started by adding enzyme solution and measured the decrease in the absorbance at 340 nm at 25° C. The above reaction is represented by the following equations: [drawing 4]
# DHAK (II) [4] = experiment: Substrate specificity of DHAK (II); type: biochemical, Schizosaccharomyces pombe IFO 0354; details: for Relative activity DHAK (II) (substrate): each substrate 1.0 mM, pH 7.5, 25° C., DHA = 100%; for Action of DHAK (II) on substrate (in words): summary of Table 1
# Procedure: as §3
# DHAK (II) [5] = biological target: T1, DHAK (II); experiment: Specificity of DHAK (II) for phosphate donor; type: biochemical, Schizosaccharomyces pombe IFO 0354; details: for Relative activity DHAK (II) (phosphate donor): Adenosine 5'-triphosphate = 100%
# Procedure: as §1
# DHAK (I) [6] = biological target: T2, DHAK (I); experiment: Specificity of DHAK (I) for phosphate donor; type: biochemical, Schizosaccharomyces pombe IFO 0354; details: for Relative activity DHAK (I) (phosphate donor): Adenosine 5'-triphosphate = 100%
# Procedure: as §1
# [7] = substrate: O=C(CO)CO; experiment: purified protein, by the assay type; details: other: pH 7.5, 25° C.
# [8] = substrate: Nc1ncnc2c1ncn2[C@@H]1O[C@H](COP(=O)(O)OP(=O)(O)OP(=O)(O)O)[C@@H](O)[C@H]1O; experiment: Km values of DHAK (I) for substrates and coenzyme; type: biochemical, Schizosaccharomyces pombe IFO 0354; details: other: pH 7.5, 25° C.
# [9] = substrate: O=CC(O)CO; experiment: Km values of DHAK (I) for substrates and coenzyme; type: biochemical, Schizosaccharomyces pombe IFO 0354; details: other: pH 7.5, 25° C.
# [10] = pH 7.5, read-out: Relative activity DHAK (I) (substrate)
# [11] = cation 4 mM, summary of Table 3
# [12] = concentration in the reaction mixture
# [13] = pH 7.5; read-out: Relative activity DHAK (I) (substrate)
molecule,measurement,setting,value
[Cl][Ni][Cl] [NiCl2],Relative activity DHAK (II) (metal cation),DHAK (II) [1],0%
same,Relative activity DHAK (I) (metal cation),DHAK (I) [2],0%
"CC(O)CO (centres unmarked) [1,2-Propanediol]",activity at 1000 µM,DHAK (I) [3]; [10],0%
same,Relative activity DHAK (II) (substrate),DHAK (II) [4],0%
Nc1ccn([C@@H]2O[C@H](COP(=O)(O)OP(=O)(O)OP(=O)(O)O)[C@@H](O)[C@H]2O)c(=O)n1 [Cytidine 5'-triphosphate],Relative activity DHAK (II) (phosphate donor),DHAK (II) [5],0%
same,Relative activity DHAK (I) (phosphate donor),DHAK (I) [6],0%
O=S(=O)([O-])[O-].[Mg+2] [MgSO4],Metal cation ranking for DHAK (II) (in words),DHAK (II) [1]; [11],maximum activity
same,Mg^2+ concentration giving sufficient activity of DHAK (II),DHAK (II) [1]; [12],≥ 4 mM
same,Relative activity DHAK (II) (metal cation),DHAK (II) [1],100%
same,Mg^2+ concentration giving sufficient activity of DHAK (I),DHAK (I) [2]; [12],≥ 4 mM
same,Relative activity DHAK (I) (metal cation),DHAK (I) [2],100%
O=P(O)(O)OP(=O)(O)OP(=O)(O)OC[C@H]1O[C@@H](n2cnc3c(O)ncnc32)[C@H](O)[C@@H]1O [Inosine 5'-triphosphate],Relative activity DHAK (II) (phosphate donor),DHAK (II) [5],0%
same,Relative activity DHAK (I) (phosphate donor),DHAK (I) [6],0%
"OCCCO [1,3-Propanediol]",activity at 1000 µM,DHAK (I) [3]; [10],0%
same,Relative activity DHAK (II) (substrate),DHAK (II) [4],0%
CC(=O)CO [Acetol],activity at 1000 µM,DHAK (I) [3]; [10],0%
same,Relative activity DHAK (II) (substrate),DHAK (II) [4],0%
Nc1ncnc2c1ncn2[C@@H]1O[C@H](COP(=O)(O)OP(=O)(O)OP(=O)(O)O)[C@@H](O)[C@H]1O [Adenosine 5'-triphosphate],Relative activity DHAK (II) (phosphate donor),DHAK (II) [5],100%
same,Phosphate donor ranking for DHAK (II) (in words),DHAK (II) [5]; summary of Table 2,best phosphate donor
same,Relative activity DHAK (I) (phosphate donor),DHAK (I) [6],100%
same,Phosphate donor ranking for DHAK (I) (in words),DHAK (I) [6]; summary of Table 2,best phosphate donor
O=C(O)C(O)CO (racemic) [DL-Glyceric acid],activity at 1000 µM,DHAK (I) [3]; [13],0%
same,Relative activity DHAK (II) (substrate),DHAK (II) [4],0%
OCC(O)CO [Glycerol],activity at 1000 µM,DHAK (I) [3]; [13],0%
same,Relative activity DHAK (II) (substrate),DHAK (II) [4],0%
O=CC(O)CO (racemic) [DL-Glyceraldehyde],activity at 1000 µM,DHAK (I) [3]; [10],27%
same,Action of DHAK (I) on substrate (in words),DHAK (I) [3]; summary of Table 1,slightly
same,Relative activity DHAK (II) (substrate),DHAK (II) [4],12%
same,Action of DHAK (II) on substrate (in words),DHAK (II) [4],slightly
[Cl][Mn][Cl] [MnCl2],Relative activity DHAK (II) (metal cation),DHAK (II) [1],9%
same,Relative activity DHAK (I) (metal cation),DHAK (I) [2],15%
CC(=O)C(C)O (centres unmarked) [Acetoin],activity at 1000 µM,DHAK (I) [3]; [10],0%
same,Relative activity DHAK (II) (substrate),DHAK (II) [4],0%
O=c1ccn([C@@H]2O[C@H](COP(=O)(O)OP(=O)(O)OP(=O)(O)O)[C@@H](O)[C@H]2O)c(=O)[nH]1 [Uridine 5'-triphosphate],Relative activity DHAK (II) (phosphate donor),DHAK (II) [5],3.6%
same,Relative activity DHAK (I) (phosphate donor),DHAK (I) [6],3.9%
O=P(O)(O)OCC(O)CO (centres unmarked) [Glycerol-3-phosphate],activity at 1000 µM,DHAK (I) [3]; [13],0%
same,Relative activity DHAK (II) (substrate),DHAK (II) [4],0%
[Cl-].[Cl-].[Co+2] [CoCl2],Relative activity DHAK (II) (metal cation),DHAK (II) [1],22%
same,Relative activity DHAK (I) (metal cation),DHAK (I) [2],29%
"O=C(CO)CO [DHA, dihydroxyacetone]",activity at 1000 µM,DHAK (I) [3]; [13],100%
same,Relative activity DHAK (II) (substrate),DHAK (II) [4],100%
same,Action of DHAK (II) on substrate (in words),DHAK (II) [4],act on
[Ca+2].[Cl-].[Cl-] [CaCl2],Relative activity DHAK (II) (metal cation),DHAK (II) [1],44%
same,Metal cation ranking for DHAK (I) (in words),DHAK (I) [2]; [11],maximum activity
same,Relative activity DHAK (I) (metal cation),DHAK (I) [2],125%
Nc1nc2c(ncn2[C@@H]2O[C@H](COP(=O)(O)OP(=O)(O)OP(=O)(O)O)[C@@H](O)[C@H]2O)c(=O)[nH]1 [Guanosine 5'-triphosphate],Relative activity DHAK (II) (phosphate donor),DHAK (II) [5],0%
same,Relative activity DHAK (I) (phosphate donor),DHAK (I) [6],0%
"DHAK (I) (Schizosaccharomyces pombe 972h-) (protein, DHAK (I) and DHAK (II) obtained from Schizosaccharomyces pombe IFO 0354; made in house; host or cells: Schizosaccharomyces pombe IFO 0354 (natural producer, not recombinant); cell extract, DEAE-Sepharose fraction at 0.12 M KCl, then Blue-Sepharose) MDKHFINDPEVLVLDGLKSLADMNKTLTVHEEGKFIYFHDYNKKNVSVISGGGAGHEPTHSSFVGKGMLTAAVSGSIFASPSSKQIYTGIKQVESEAGTLVICKNYTGDILHFGMALEKQRTAGKKAELIAVADDVSVGRKKSGKVGRRGLSGTVLVHKIAGAAAARGLPLEAVTTIAKAAIDNLVSIGASLAHVHVPGHEPIAKEDEMKHDEMELGMGIHNEPGCKRISPIPSIDDLIAQMLKQMLDQSDKDRAYVKIEGDDEVVLLMNNLGGLSMLEFSAISHKVKEALAKEYKINPVRIFAGPFTTSLNGLGFGITLLRTTDRVKVEGEEYSLVDLIDQPVEAIGWPLCQPSDLKSKNKIGNVSIEEGQKDVKSPVTVDKEKVRQAIVNSMENLIKAEPKITKFDTMAGDGDCGTTLKRGAEGVLKFVKSDKFSDDPIRIVRDIADVIEDNMDGTSGALYAIFFHGFAKGMKDTLEKSKDISSKTWAAGLKVALDTLFKYTPARPGDSTMCDALVPFVETFVKTNDLNAAVEEARKGADATADMQAKLGRAVYVGDDVKVPDAGALGVVAIVEGFTK",Km,[7],8.4 µM
same,Km,[8],220 µM
same,Km,[9],21 µM
